Measured values reported in paper PMC10873978, “Novel tetrahydroisoquinolines as DHFR and CDK2 inhibitors: synthesis, characterization, anticancer activity and antioxidant properties” (BMC Chemistry, 2024).
Several values for one entry are separate records, joined by “and”; a condition that tells them apart may be missing. Equal values may be shown once. Read-outs that look alike come from different tables or passages of the source.

Tests used:
[1] = Cytotoxicity on normal cell line WI-38; format: cell-based, human; settings: human, WI-38 cells (normal fetal lung fibroblasts)
WI-38 cell line = experiment: Cytotoxicity on normal cell line WI-38; format: cell-based, human; settings: for IC50: read-out: Toxicity on WI38 IC50 ± SD
MCF7 cell line = experiment: Annexin-V FITC/PI apoptosis assay, MCF7; format: cell-based, human; settings: MCF7, compound at IC50, 24 h
Experimental: (www.biovision.com). […] These stained cells were measured using flow cytometry with an excitation wavelength of 488 nm and an emission wavelength of 530 nm. The results were then analyzed with the Cell quest software.
To further investigate whether the anti-proliferative activity for compound 7e or 8d is harmonious with the apoptosis induction within A549 or MCF7 cells pointed out by the increased cell population in G2/M phase in 7e-treated A549 cells and S phase in 8d-treated MCF7 cells, respectively, and AnnexinV-FITC/PI dual staining analysis was used for the apoptosis assay (Fig. 3).

[2] = target: T1, Dihydrofolate Reductase (DHFR) (Homo sapiens, UniProt P00374); experiment: DHFR inhibitors assay kit (absorbance 340 nm); format: biochemical; settings: for %inh: DHFR
T1 construct: purchased abcam ab283374
T1 sequence (P00374 1-187): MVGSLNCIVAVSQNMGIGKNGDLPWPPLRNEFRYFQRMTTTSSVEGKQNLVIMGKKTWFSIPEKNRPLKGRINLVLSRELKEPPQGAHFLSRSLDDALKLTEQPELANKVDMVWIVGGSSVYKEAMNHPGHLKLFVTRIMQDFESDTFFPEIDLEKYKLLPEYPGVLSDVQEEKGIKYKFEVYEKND
Experimental: The DHFR inhibitors assay kit was performed according to abcam (code ab283374); (www.abcam.co.jp).
Firstly, Dilute 2 μL Dihydrofolate Reductase with798 μL DHFR Assay Buffer. Then add 98 μL of diluted Dihydrofolate Reductase into desired well(s) containing the out synthesized 8d compound. Add 40 μL of diluted NADPH to each well containing the test samples. Incubate at room temperature for 10–15 min. Add 60 μL of diluted DHFR substrate to each well containing the test samples vortex briefly and keep on ice. Measure the absorbance immediately at 340 nm. Then calculate the inhibition concentration of 8d compound. The data was analyzed and plot by Graphpad prism software.

MCF7 cells = experiment: Cell cycle analysis (propidium iodide flow cytometry), MCF7; format: cell-based, human
Experimental: Then centrifuged the cells and washed twice with ice-cold PBS, and incubated for 20 min at 4 °C. A cell cycle assay was used to assess the cell cycle (Propidium Iodide Flow Cytometry Kit [ab13941]. Then perform statistical analysis for the result by the Cell quest software on the cell fractions in sub-G0/G1, S, and G2/M phases.

Eef2 kinase = Eef2 kinase (Homo sapiens, UniProt O00418); experiment: Eef2 kinase inhibition; format: biochemical
IKB kinase B = target: T2, IKB kinase B (Homo sapiens, UniProt O14920); experiment: IKB kinase inhibition; format: biochemical; settings: for %inh: IκB
T2 sequence (O14920 1-756): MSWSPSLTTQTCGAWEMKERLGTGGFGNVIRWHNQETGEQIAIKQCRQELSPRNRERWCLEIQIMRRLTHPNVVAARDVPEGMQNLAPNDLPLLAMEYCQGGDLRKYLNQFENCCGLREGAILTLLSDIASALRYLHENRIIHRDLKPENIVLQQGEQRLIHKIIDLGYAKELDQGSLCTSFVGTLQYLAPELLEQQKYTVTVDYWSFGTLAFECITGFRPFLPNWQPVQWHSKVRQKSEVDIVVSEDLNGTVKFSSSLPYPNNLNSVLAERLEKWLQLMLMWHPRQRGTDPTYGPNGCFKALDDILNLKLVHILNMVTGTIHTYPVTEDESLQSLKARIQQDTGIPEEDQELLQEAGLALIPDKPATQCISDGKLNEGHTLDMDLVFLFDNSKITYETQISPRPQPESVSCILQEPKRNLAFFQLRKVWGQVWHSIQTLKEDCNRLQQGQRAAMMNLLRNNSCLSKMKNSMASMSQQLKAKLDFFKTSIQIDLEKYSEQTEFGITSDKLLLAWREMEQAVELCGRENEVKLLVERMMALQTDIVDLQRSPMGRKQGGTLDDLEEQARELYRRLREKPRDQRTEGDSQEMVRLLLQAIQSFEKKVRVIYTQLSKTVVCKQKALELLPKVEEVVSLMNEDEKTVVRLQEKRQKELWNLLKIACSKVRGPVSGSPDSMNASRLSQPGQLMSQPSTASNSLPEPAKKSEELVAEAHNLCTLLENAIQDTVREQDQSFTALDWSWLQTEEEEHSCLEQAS

[3] = MCF7 cells, compound at IC50, 48 h

CC(=O)c1ccc(NC(=O)c2sc3nc(C)c4c(c3c2N)CC(C)(O)C(C(C)=O)C4c2ccc(N(C)C)cc2)cc1 (centres unmarked) [Compound 8d, 7-Acetyl-N-(4-acetylphenyl)-1-amino-5,8-dimethyl-8-hydroxy-6-(4-N,N-dimethylaminophenyl)-6,7,8,9-tetrahydrothieno[2,3-c]isoquinoline-2-carboxamide]
viability at 3.125 µM ([1]; WI38): 86.3% | viability at 1.55 µM ([1]; WI38, 1.55uM (log conc. 0.19), read-out: % viability): 96.7% | viability at 6.25 µM ([1]; WI38, 6.25uM (log conc. 0.8), read-out: % viability): 74% | viability at 12.5 µM ([1]; WI38, 12.5uM (log conc. 1.1), read-out: % viability): 62.8% | viability at 25 µM ([1]; WI38, 25uM (log conc. 1.4), read-out: % viability): 46.9% | IC50 (WI-38 cell line; Homo sapiens, WI-38, normal human fetal lung fibroblast WI-38): 23300 nM | Selectivity index (SI) (WI-38 cell line; IC50 in WI-38 / IC50 in A549): 45 and 45.24 | % viability (WI-38 cell line; WI38, 6.25uM (log conc. 0.8), 6.25 µM): 73.9744% | % viability (WI-38 cell line; WI38, 25uM (log conc. 1.4), 25 µM): 46.8729% | IC50 (WI-38 cell line; normal human fetal lung fibroblast WI-38): 23300 ± 930 nM | early apoptotic population (MCF7 cell line): 22.38% | late apoptotic population (MCF7 cell line): 26.96% | population of necrotic cells (MCF7 cell line): 5.04% | %inh ([2]; conc 0.01 (log -2)): 27.5% | %inh ([2]; conc 0.1 (log -1)): 38.9% | %inh ([2]; conc 1 (log 0)): 67.1% | %inh ([2]; conc 10 (log 1)): 85.7% | %inh ([2]; conc 100 (log 2)): 93% | IC50 ([2]; read-out: DHFR inhibition (IC50 ± SD)): 199 ± 16 nM | phase of cell cycle arrest (MCF7 cells; MCF7 cell line): S phase | DNA content %G0-G1 (MCF7 cells; [3]): 52.03% | DNA content %G2/M (MCF7 cells; [3]): 10.05% | DNA content %S (MCF7 cells; [3]): 37.92% | %inh (Eef2 kinase; Eef2, conc 0.01 (log -2)): 16.5% | %inh (Eef2 kinase; Eef2, conc 0.1 (log -1)): 32.8% | %inh (Eef2 kinase; Eef2, conc 1 (log 0)): 48.2% | %inh (Eef2 kinase; Eef2, conc 10 (log 1)): 76.5% | %inh (Eef2 kinase; Eef2, conc 100 (log 2)): 91.7% | IC50 (Eef2 kinase; read-out: Eef2 kinase (IC50 ± SD)): 689 ± 36 nM | %inh (IKB kinase B; conc 0.01 (log -2)): 21.8% | %inh (IKB kinase B; conc 0.1 (log -1)): 42.3% | %inh (IKB kinase B; conc 1 (log 0)): 63.9% | %inh (IKB kinase B; conc 10 (log 1)): 86.4% | %inh (IKB kinase B; conc 100 (log 2)): 93.7% | IC50 (IKB kinase B; read-out: IKB kinase B (IC50 ± SD)): 240 ± 13 nM
